Assay results taken from patent publication US20260043028A1, “TREATMENT OF SPINAL MUSCULAR ATROPHY” (University of Pittsburgh - Of the Commonwealth System of …, priority 2023, published 2026).

Tested on: human patients with Type 3 SMA
Experiment: Four-week spinal cord stimulation (SCS) trial in SMA patients with or without concurrent SMA therapy (Nusinersen), with long-term follow-up
Format: in vivo
Description: This example describes a particular method that can be used to treat SMA in a patient by applying a therapeutically effective amount of an electrical stimulus to the dorsolateral aspect of the spinal cord containing sensory neurons innervating a body region of the patient with motor impairment due to SMA. Although particular methods and protocols are provided, one skilled in the art will appreciate that variations can be made without substantially affecting the treatment. Three patients with SMA were identified and participated in this spinal cord stimulation trial. […]
Three human patients with Type 3 SMA that show quantifiable motor deficits of the legs are selected for treatment. […]
This example aims to measure immediate, end-of-study, and long-term effects of SCS on SMA including various clinical outcomes. […] As used herein, “immediate” refers to effects measured during the four-week study and relates to the usage of SCS. […] As used herein, “end-of-study” refers to effects measured within about 1 week before or after the end of the four-week study, around the time that the SCS electrodes are removed. […] In particular, as used herein, “long-term” refers to effects measured 50+ days after the electrodes are removed and relates to changes in motor ability over time without the continuous application of SCS. […]

## Nusinersen
SMA02 and SMA03 (Nusinersen plus SCS) vs SMA01 (SCS only), during the four-week experiment
  results throughout the course of the four-week experiment, compared with the patient not treated with an SMA therapy: did not exhibit substantially better results
SMA02 and SMA03 on SMA therapy during SCS, long-term follow-up (50+ days after explant), SMA01 without therapy showed long-term degradation
  long-term course of the beneficial effects of SCS: long-term stability in the beneficial effects of SCS
